Results: patent publication US10016427B2, “Hydrochloride salt of((1S,2S,4R)-4-{4-[(1S)-2,3-dihydro-1H-inden-1-ylamino]-7H-pyrrolo[2,3-D]pyrimidin-7-YL}-2-hydroxycyclopentyl) methyl sulfamate” (Millennium Pharmaceuticals, Inc., priority 2009, dated 2018)
Counter-ions that a name gives are not always drawn.

Columns and labels:
[1] = Solid state storage stability (Peak Area % measured by HPLC); type: physicochemical; conditions: for stability on storage: compared with the potassium salt; for Peak Area % 6 weeks / Peak Area % Initial / Peak Area % 15 days: solid state; for Peak Area % Initial: -20° C. freezer
Text: The following table summarizes stability data obtained (Peak Area % measured by HPLC) for solid state ((1S,2S,4R)-4-{4-[(1S)-2,3-dihydro-1H-inden-1-ylamino]-7H-pyrrolo[2,3-d]pyrimidin-7-yl}-2-hydroxycyclopentyl)methyl sulfamate.

[2] = Solubility of Form 1 in water; type: physicochemical
Text: The resulting solution has a pH of about 2.33.

Row | stability on storage [1] | Peak Area % 6 weeks ([1]; 5° C. refrigerator) [%] | Peak Area % 6 weeks ([1]; 40° C./75% RH) [%] | Peak Area % 6 weeks ([1]; 60° C./75% RH) [%] | Peak Area % Initial [1] [%] | solubility ([2]; pH 2.33, thermodynamic from solid, in water) [µg/mL] | pH of the resulting solution ([2]; solution resulting from dissolution in water) | Peak Area % 15 days ([1]; 5° C. refrigerator) [%] | Peak Area % 15 days ([1]; 40° C./75% RH) [%] | Peak Area % 15 days ([1]; 60° C./75% RH) [%] | SMILES
1 | increased stability on storage | 99.3 | 98.7 | 91.3 | 99.2 | ~7800 | about 2.33 |  |  |  | NS(=O)(=O)OC[C@@H]1C[C@@H](n2ccc3c(N[C@H]4CCc5ccccc54)ncnc32)C[C@@H]1O [HCl Salt Form 1, ((1S,2S,4R)-4-{4-[(1S)-2,3-dihydro-1H-inden-1-ylamino]-7H-pyrrolo[2,3-d]pyrimidin-7-yl}-2-hydroxycyclopentyl)methyl sulfamate hydrochloride Form 1]
2 | increased stability on storage |  |  |  | 98.3 |  |  | 98.2 | 97.8 | 88.6 | NS(=O)(=O)OC[C@@H]1C[C@@H](n2ccc3c(N[C@H]4CCc5ccccc54)ncnc32)C[C@@H]1O [HCl Salt Form 2, ((1S,2S,4R)-4-{4-[(1S)-2,3-dihydro-1H-inden-1-ylamino]-7H-pyrrolo[2,3-d]pyrimidin-7-yl}-2-hydroxycyclopentyl)methyl sulfamate hydrochloride Form 2]
3 |  |  |  |  | 96.0 |  |  | 96.4 | 94.5 | 93.2 | NS(=O)(=O)OC[C@@H]1C[C@@H](n2ccc3c(N[C@H]4CCc5ccccc54)ncnc32)C[C@@H]1O [free base (amorphous), ((1S,2S,4R)-4-{4-[(1S)-2,3-dihydro-1H-inden-1-ylamino]-7H-pyrrolo[2,3-d]pyrimidin-7-yl}-2-hydroxycyclopentyl)methyl sulfamate, reference compound]
4 |  |  |  |  | 96.9 |  |  | 97.6 | 88.7 | 38.3 | NS(=O)(=O)OC[C@@H]1C[C@@H](n2ccc3c(N[C@H]4CCc5ccccc54)ncnc32)C[C@@H]1O.[K] [potassium salt (amorphous), potassium salt of ((1S,2S,4R)-4-{4-[(1S)-2,3-dihydro-1H-inden-1-ylamino]-7H-pyrrolo[2,3-d]pyrimidin-7-yl}-2-hydroxycyclopentyl)methyl sulfamate, reference compound]
